pIC50: −log10 of the molar value.
Test system: 885724-159-R-J1-PDC spheroids viability
Assay: Anticancer human tumor 885724-159-R-J1-PDC patient-derived pancreatic adenocarcinoma cell line growth inhibition [TAK]
Details: spheroids with HUVEC and MSC; for pIC50: curve of first compound; for viability, T/C: stronger effect = lower value
Description: Combinatorial screen of targeted agents with TAK-243 and ipatasertib in multi-cell type tumor spheroids
A high-throughput screen of multi-cell type tumor spheroids was designed to identify active combinations of targeted small molecules and TAK-243 or ipatasertib. Complex spheroids include a stromal component modeled by human endothelial cells (HUVEC) and fibroblasts modeled by human mesenchymal stem cells (MSCs). The concentration ranges selected for each drug and investigational agent were based upon clinically achievable concentrations if the clinical Cmax of the agent was known.
Compounds. The drugs and investigational agents: TAK-243 (785004), ipatasertib (767898), everolimus (733504), selumetinib (741078), bortezomib (756655), trametinib (758246), ixazomib (758254), vemurafenib (761431), dabrafenib (764134), sapanisertib (764658), alpelisib (765974), and copanlisib (816437), were obtained from the National Cancer Institute (NCI) Developmental Therapeutics Program Chemical Repository. The FDA-approved anticancer drug set is available from the NCI Developmental Therapeutics Program. […] The stock solutions were prepared in dimethyl sulfoxide (DMSO, Sigma-Aldrich, St. Louis, MO, cat. D2650) at 800-fold the tested concentration and stored at -70 degrees C prior to their use. All drugs and investigational agents were tested over a range starting from a high concentration at or near the clinical Cmax and decreasing in half-log increments. If the clinical Cmax for an agent had not been determined, the highest concentration tested was 10 microM.
NCI60 Cell Culture. NCI60 cell lines were obtained from the NCI Developmental Therapeutics Program Tumor Repository. For each lot of cells, the Repository performed Applied Biosystems AmpFLSTR Identifiler testing with PCR amplification to confirm consistency with the published Identifier STR profile for each cell line. Cells were kept in continuous culture for no more than 20 passages. The optimal seeding densities for each of the cell lines at each time point assessed were determined prior to performing the concentration response studies. Briefly, the NCI60 human tumor lines were grown as monolayers in RPMI 1640 medium supplemented with 10% FBS and 2 mmol/L L-glutamine.
An additional 2 lines were from the NCI60 cell line panel including melanomas, MALME-3M and SK-MEL-2. Pooled donor human umbilical vein endothelial cells (HUVEC, Lonza, cat. CC-2519) and human mesenchymal stem cells (hMSC, Lonza, cat. PT-2501) were purchased from Lonza (Walkersville, MD).
PDMR cell lines were grown in complete medium (DC medium): Dulbecco's modified Eagle's medium (DMEM)/F12 supplemented with 5% fetal bovine serum (FBS), 2 mM L-glutamine, 100 U/mL penicillin and 100 µg/ml streptomycin, 0.4 µg/ml hydrocortisone, 10 ng/ml epidermal growth factor (EGF) recombinant human protein, 24 µg/mL adenine, and 0.1 mg/mL primocin. During culture from frozen stock vials, PDMR cells were cultured in the same medium containing 10 µM Y-27632 (see Table 3). The PDCs were cultured in complete DMEM/F12 media without 10 microM Y-27632 dihydrochloride for at least two passages prior to the screen. The pooled donor HUVEC and hMSC were cultured in endothelial cell growth medium 2 (PromoCell, Heidelberg, Germany, cat. C-22011) and mesenchymal stem cell growth medium 2 (PromoCell, cat. C-28009), respectively. For all experiments, HUVEC and hMSC were used at passages </=5.
For the pre-screen, cell seeding densities were determined from a titration spanning the range from 5,000 to 313 cells per well. The mct-spheroids including 60% malignant cells, 25% HUVEC and 15% MSC dispensed as a mixture into U-bottom Ultra-Low Attachment 384-well plates (Corning, NY)
High-throughput Drug Combination Screening.
Prior to their inoculation into 384-well plates, malignant cells, HUVEC, and hMSC were removed from T flasks using TrypLE express (Thermo Fisher Scientific, cat. 12605036) and harvested by centrifugation for 5 min at 233 x g. […]
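Further: spheroids exposed to drugs for seven days.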
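Wherever viability, T/C is given: 100% = DMSO vehicle control viability.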

COC1CC2CCC(C)C(O)(O2)C(=O)C(=O)N2CCCCC2C(=O)OC(C(C)CC2CCC(OCCO)C(OC)C2)CC(=O)C(C)C=C(C)C(O)C(OC)C(=O)C(C)CC(C)C=CC=CC=C1C (stereo not given) + CC(C)NCC(C(=O)N1CCN(c2ncnc3c2C(C)CC3O)CC1)c1ccc(Cl)cc1
pIC50 (second compound 0.3 µM): < 7.00
pIC50 (second compound 0.949 µM): < 7.00
pIC50 (second compound 3 µM): 7.55
pIC50 (second compound 9.49 µM): > 9.50
pIC50 (second compound 30 µM): > 9.50
viability, T/C (second compound 0.3 µM, first compound 0.000316 µM): 68.2%
viability, T/C (second compound 0.3 µM, first compound 0.001 µM): 62.3%
viability, T/C (second compound 0.3 µM, first compound 0.00316 µM): 62.3%
viability, T/C (second compound 0.3 µM, first compound 0.01 µM): 58.5%
viability, T/C (second compound 0.3 µM, first compound 0.0316 µM): 57.4%
viability, T/C (second compound 0.3 µM, first compound 0.1 µM): 56.3%
viability, T/C (second compound 0.949 µM, first compound 0.000316 µM): 63.1%
viability, T/C (second compound 0.949 µM, first compound 0.001 µM): 58.5%
viability, T/C (second compound 0.949 µM, first compound 0.00316 µM): 56.4%
viability, T/C (second compound 0.949 µM, first compound 0.01 µM): 59.3%
viability, T/C (second compound 0.949 µM, first compound 0.0316 µM): 58.4%
viability, T/C (second compound 0.949 µM, first compound 0.1 µM): 61.2%
viability, T/C (second compound 3 µM, first compound 0.000316 µM): 60.5%
viability, T/C (second compound 3 µM, first compound 0.001 µM): 60.4%
viability, T/C (second compound 3 µM, first compound 0.00316 µM): 53.3%
viability, T/C (second compound 3 µM, first compound 0.01 µM): 50.7%
viability, T/C (second compound 3 µM, first compound 0.0316 µM): 52.5%
viability, T/C (second compound 3 µM, first compound 0.1 µM): 46.2%
viability, T/C (second compound 9.49 µM, first compound 0.000316 µM): 48.2%
viability, T/C (second compound 9.49 µM, first compound 0.001 µM): 49.6%
viability, T/C (second compound 9.49 µM, first compound 0.00316 µM): 47.3%
viability, T/C (second compound 9.49 µM, first compound 0.01 µM): 41.4%
viability, T/C (second compound 9.49 µM, first compound 0.0316 µM): 42.5%
viability, T/C (second compound 9.49 µM, first compound 0.1 µM): 39.4%
viability, T/C (second compound 30 µM, first compound 0.000316 µM): 31.3%
viability, T/C (second compound 30 µM, first compound 0.001 µM): 27.5%
viability, T/C (second compound 30 µM, first compound 0.00316 µM): 27.5%
viability, T/C (second compound 30 µM, first compound 0.01 µM): 23.8%
viability, T/C (second compound 30 µM, first compound 0.0316 µM): 29.3%
viability, T/C (second compound 30 µM, first compound 0.1 µM): 25.5%

Cn1cnc2c(F)c(Nc3ccc(Br)cc3Cl)c(C(=O)NOCCO)cc21 + CC(C)NCC(C(=O)N1CCN(c2ncnc3c2C(C)CC3O)CC1)c1ccc(Cl)cc1
pIC50 (second compound 0.3 µM): > 8.02
pIC50 (second compound 0.949 µM): > 8.02
pIC50 (second compound 3 µM): > 8.02
pIC50 (second compound 9.49 µM): > 8.02
pIC50 (second compound 30 µM): > 8.02
viability, T/C (second compound 0.3 µM, first compound 0.00949 µM): 49.1%
viability, T/C (second compound 0.3 µM, first compound 0.03 µM): 42.5%
viability, T/C (second compound 0.3 µM, first compound 0.0949 µM): 29.3%
viability, T/C (second compound 0.3 µM, first compound 0.3 µM): 24.9%
viability, T/C (second compound 0.3 µM, first compound 0.949 µM): 18.8%
viability, T/C (second compound 0.3 µM, first compound 3 µM): 14.1%
viability, T/C (second compound 0.949 µM, first compound 0.00949 µM): 45.2%
viability, T/C (second compound 0.949 µM, first compound 0.03 µM): 41.2%
viability, T/C (second compound 0.949 µM, first compound 0.0949 µM): 30.5%
viability, T/C (second compound 0.949 µM, first compound 0.3 µM): 22.6%
viability, T/C (second compound 0.949 µM, first compound 0.949 µM): 16.6%
viability, T/C (second compound 0.949 µM, first compound 3 µM): 10.3%
viability, T/C (second compound 3 µM, first compound 0.00949 µM): 42%
viability, T/C (second compound 3 µM, first compound 0.03 µM): 37.1%
viability, T/C (second compound 3 µM, first compound 0.0949 µM): 27.5%
viability, T/C (second compound 3 µM, first compound 0.3 µM): 18.7%
viability, T/C (second compound 3 µM, first compound 0.949 µM): 12.6%
viability, T/C (second compound 3 µM, first compound 3 µM): 7.23%
viability, T/C (second compound 9.49 µM, first compound 0.00949 µM): 36.7%
viability, T/C (second compound 9.49 µM, first compound 0.03 µM): 27.9%
viability, T/C (second compound 9.49 µM, first compound 0.0949 µM): 16.8%
viability, T/C (second compound 9.49 µM, first compound 0.3 µM): 13.7%
viability, T/C (second compound 9.49 µM, first compound 0.949 µM): 9.53%
viability, T/C (second compound 9.49 µM, first compound 3 µM): 4.7%
viability, T/C (second compound 30 µM, first compound 0.00949 µM): 20.5%
viability, T/C (second compound 30 µM, first compound 0.03 µM): 13.7%
viability, T/C (second compound 30 µM, first compound 0.0949 µM): 9.15%
viability, T/C (second compound 30 µM, first compound 0.3 µM): 5.41%
viability, T/C (second compound 30 µM, first compound 0.949 µM): 3.69%
viability, T/C (second compound 30 µM, first compound 3 µM): 2.03%

From PubChem BioAssay AID2060348 (Molecular Pharmacology Branch, DTP, NCI, 2025)
